In US20100126680A1, “Method For Controlling Enzymatic Decomposition Of Peroxide and Products Thereof” (BUCKMAN LABORATORIES INTERNATIONAL, INC., priority 2008, published 2010):

How the values were obtained:
Type in all cases: biochemical
[1] = test system: commercial catalase TERMINOX® Ultra 50L; test: Filter paper float test of catalase de-activation using distilled water; settings: for Float time: 20 μL catalase/1000 mL distilled water, no-inhibitor float time 75 sec
Method: (§1) A filter paper float test was carried out to study catalase deactivation performance of aldehyde-functional polymers and a conventional catalase inhibitor on bleached paper. In a typical float test, a one-inch square piece of filter paper was saturated with 50% H2O2 solution. With excess H2O2 solution being removed, the treated filter paper was submerged in 200 mL aqueous catalase solution or 200 mL de-inking white water. The catalase solution was prepared by diluting a commercial catalase solution with either distilled water or papermaking white water. Various amounts of the catalase inhibitors being studied were mixed with the catalase solution or de-inking white water for five minutes before the treated filter paper was submerged in the catalase solution or de-inking white paper. Controls also were carried out in which no catalase inhibitor was added to the catalase solution or de-inking paper before the treated filter was submerged therein. The time that was required for the filter paper to rise to the solution surface was recorded and used to determine H2O2 decomposition rate. A longer time for the filter paper to rise to the surface indicated a slower H2O2 decomposition rate.
Catalase de-activation performance of a glyoxalated polyacrylamide (G-PAM) and glutaraldehyde was tested with the filter paper float test using distilled water. As indicated, in a typical test, a square piece of filter was first saturated with 50% H2O2 solution. Various amounts of the two types of catalase inhibitors being studied in this example were mixed with the catalase solution prepared with distilled water for five minutes before the treated filter paper was submerged in the catalase solution. Once the treated filter paper was submerged in catalase solution, catalase started decomposing H2O2 molecules, releasing O2 gas. The faster the H2O2 decomposition rate, the faster the O2 gas being generated, and the shorter the time required for the filter paper to rise to the solution surface. On the other hand, the presence of catalase inhibition will slow down the H2O2 decomposition rate, resulting in longer periods of time for the filter paper to rise to the surface.
Table 1 presents the results of the float tests conducted with 20 μL commercial catalase TERMINOX® Ultra 50L diluted by 1000 mL distilled water to prepare the catalase solution. As indicated, glutaraldehyde and glyoxalated polyacrylamide were studied as the catalytic inhibitors. Glutaraldehyde was chosen as a control for this example. Large quantities of glutaraldehyde are commercially used as a catalase inhibitor. BUBOND® 387 was the source of the glyoxalated polyacrylamide.

[2] = test system: wild catalase in de-inking white water; test: Filter paper float test of catalase de-activation using de-inking white water
Method: as §1
As an initial observation made with respect to the controls that contained no catalase inhibitor, a significant difference was observed between the papermaking and de-inking sources of white water with respect to wild catalase content. […] The presence of wild catalase in the de-inking white water was confirmed by the float tests. It only took about 40 seconds for the peroxide-treated filter paper to rise to the surface of the de-inking white water that had not been treated with catalase inhibitor (e.g., see Control A, Table 4 below).
Float tests were also carried out with the de-inking white water obtained from a papermaking mill. Various amounts of the catalase inhibitors being studied for this example were mixed with the de-inking white water for five minutes before the treated filter paper was submerged in the de-inking white water. […]

[3] = test system: commercial catalase TERMINOX® Ultra 50L; test: Filter paper float test of catalase de-activation using papermaking white water; settings: 500 ppm inhibitor
Method: as §1
To test the effect of dissolved and colloidal substances on catalase inhibitors, float tests were also carried out with the white water obtained from a newsprint papermaking mill. […]

Float time ([1]; 50 ppm inhibitor): 80 s | Float time ([1]; 100 ppm inhibitor): 72 s | Float time ([1]; 150 ppm inhibitor): 88 s | Float time ([1]; 200 ppm inhibitor): 103 s | Float time ([1]; 300 ppm inhibitor): 117 s | Float time ([1]; 500 ppm inhibitor): 128 s | filter paper float time ([1]; below 100 ppm inhibitor, distilled water catalase solution): around 75 seconds | Float time ([2]; Dosage 2000 ppm, de-inking white water, no-inhibitor Control A 39 sec): 68 s | Float time ([3]; 10 μL catalase/1000 mL papermaking white water, no-inhibitor float time 197 sec): 301 s | Float time ([3]; 20 μL catalase/1000 mL papermaking white water, no-inhibitor float time 67 sec): 130 s
SMILES: O=CCCCC=O [Glutaraldehyde]
Float time ([2]; Dosage 2000 ppm, de-inking white water pre-treated with 1000 ppm BUSAN® 1078 bactericide for 30 minutes, no-inhibitor Control B 35 sec): 40 s | Float time ([2]; Dosage 4000 ppm, de-inking white water pre-treated with 1000 ppm BUSAN® 1078 bactericide for 30 minutes, no-inhibitor Control B 35 sec): 37 s
